In data set [1] the test system is HT-29 cells. Kind of data set: WST-1 cell growth/viability assay, HT-29. Particulars: for GI50: Homo sapiens, HT-29, 72 h, 72 hours; for effect of PARP inhibitor on the reduction in succinate-tetrazolium reductase activity by 5-FU and hmUdR: inhibitor added simultaneously with 5-FU and hmUdR. It counts as cell-based, human. As for the experimental part:
Indicated concentrations of drugs were added to wells one day after seeding. […] Cell proliferation was quantitated by measuring 450 nm absorbance and 600 nm as a background. All assays were performed in triplicate. […] The minimal combination index […] for each cell line was obtained from the isobologram parameters.
(Tetrazolium dyes change colour on reduction, which living cells bring about.)

Data set [2] deals with HT-29 cells. The data set can be described thus: Alkaline comet assay (single-strand breaks). It is filed as cell-based, human. Conditions: 48 h; for number of DNA single-strand breaks: 0.5 μM 5-FU and/or 5 μM hmUdR. As for the experimental part:
(§1) After incubation for indicated time periods (12-48 h), the cells were trypsinized and washed in PBS. For time course experiments, cells harvested at each time point were stored in 10% DMSO/40% DMEM/50% FBS at −80° C. until slide processing. Approximately 5,000 cells were spread in 0.9% low-melting point agarose/PBS on CometSlide (Trevigen), and chilled at 4° C. in the dark for 20 min.
For alkaline comet assay, slides were soaked in precooled lysis buffer containing 2.5 M NaCl/100 mM EDTA/10 mM Tris/1% sarkosyl/1% Triton X-100 at 4° C. for 45 min, followed by soaking in precooled 300 mM NaOH/1 mM EDTA at 4° C. for 45 min. Subsequently, slides were electrophoresed in 300 mM NaOH/1 mM EDTA at 1.4 V/cm for 20 min at 4° C., washed in 70% ethanol for 5 min, and allowed to dry in the dark. Cellular DNA was stained with 1×SYBR Green I (Molecular Probes) 30 min before analysis with a fluorescence microscope. Alkaline comet assays were performed in triplicate and more than 30 comets for each condition were photographed at the Light Microscope Facility at Fox Chase Cancer Center, and analyzed by CometScore software (TriTek).

Data set [3] concerns HT-29 cells. The data set can be described thus: Neutral comet assay (double-strand breaks). It is filed as cell-based, human. Particulars: 0.5 μM FU and/or 5 μM hmUdR, 48 h. As for the experimental part:
as §1
For neutral comet assay, slides were soaked in precooled lysis buffer at 4° C. for 30 min, followed by washing in precooled 1×TBE buffer (90 mM Tris-borate, pH8.3, 2 mM EDTA). Slides were electrophoresed in 1×TBE buffer at 2 V/cm for 20 min at 4° C., rinsed in deionized water, washed in 70% ethanol for 5 min, and allowed to dry in the dark. Subsequently, slides were processed as above for DNA staining and comet analyses. Neutral comet assays were conducted in duplicate, in each of which more than 60 comets for each condition were analyzed.

A further data set has as its system HT-29 cellular DNA. The data set can be described thus: Quantitation of 5-FU and hmUdR incorporated into cellular DNA. It is filed as cell-based, human. Particulars: at 48 h. As for the experimental part: [6-^3H]-5-FU (18 Ci/mmol) and of [^3H]-hmUdR (10 Ci/mmole) were purchased from Moravek Biochemicals. […] At 24 or 48 h after drug addition, cells were washed with PBS and their DNA was recovered with Trizol (Invitrogen) according to the manufacturer's instruction. Subsequently the recovered DNA was quantitated by 260 nm absorbance, and its radioactivity was measured by liquid scintillation counting.

Data set [4] concerns HT-29 cells. The data set can be described thus: Cell cycle analysis by flow cytometry. It is filed as cell-based, human. As to the method: HT-29 cells that were seeded at 2×10^6 cells/plate in 10 cm dishes and incubated with 20 ng/ml nocodazole for 18 h. […] The synchronized cells were washed with PBS prior to the addition of fresh medium containing the indicated nucleosides and/or bases.
Cells grown in 10 cm dishes were trypsinized, spun down and suspended in 10 ml PBS containing 0.5% FBS. […], the cells were resuspended in 0.5 ml PBS/0.5% FBS, and fixed in 5 ml 70% ethanol at −20° C. […] and washing with 10 ml PBS/0.5% FBS, the cells were suspended in 1.5 ml PBS/0.5% FBS containing 10 μg/ml propidium iodide and 50 μg/ml RNase A, and incubated at 37° C. for 30 min. Cell cycle distribution was analyzed with a FACScan flow analyzer (Becton Dickinson).

For another data set, the system named is human CRC HT-29 cells. Kind of data set: Cell growth assay, Example 2. It counts as cell-based.
Data set [5] concerns HT-29 cells expressing GFP-H2B. The data set can be described thus: Time-lapse microscopy of cell divisions. It is filed as cell-based, human. Conditions: 0.5 μM 5-FU and/or 5 μM hmUdR. As for the experimental part: HT-29 cells were infected with a retroviral vector for expression of […] histone H2B. HT-29 cells expressing GFP-H2B were seeded at 2×10^5 cells/well in 6-well plates. On the following day, drug treatments were initiated and cell proliferation was monitored by time-lapse microscopy. Image acquisition was done at the Light Microscope Facility at Fox Chase Cancer Center using phase-contrast and GFP-specific fluorescence microscopy (Nikon TE2000S) controlled by Metamorph (Molecular Devices). Images were captured at a rate of one frame per 15 minutes for 60 hours, in which cells were kept at 37° C. Images were captured from 10 areas per well. The number of cell divisions that occurred in each area was counted for the first 24 h and the second 24 h periods.

In data set [6] the test system is HT-29 cells. Kind of data set: CyQUANT cell proliferation assay. Conditions: 3AB present with 5-FU and hmUdR for 72 h. It is filed as cell-based, human. As for the experimental part: Cell proliferation assays measuring genomic DNA were carried out using the CyQUANT kit (Invitrogen). In these experiments, the cells after drug treatments were replated to grow in the absence of the drugs for six days, and their nucleic acids was quantitated by CyQUANT assay. These assays were also conducted in triplicate.

Another data set relates to PARP1. The data set can be described thus: Immunoblot detection of PARP1 cleavage. It is filed as cell-based, human. Conditions: 5-FU and hmUdR 72 h; control 50 μM LY294002 1 h followed by 4 h 100 μg/ml TRAIL. As to the method:
After […] on ice, cells were scraped and […] for 10 min at 4° C. The supernatant was recovered. This whole cell extract (50 μg protein) was subjected to SDS-containing polyacrylamide gel electrophoresis, and transferred to Immobilon-P membrane (Millipore). For detection of poly(ADP-ribose), the nuclear pellet was recovered after removing the whole cell extract as prepared above except that the lysis buffer was supplemented with 50 μM ethacridine, an inhibitor of poly(ADP-ribose) glycohydrolase. 10 μg protein of the nuclear pellet was subjected to gel electrophoresis and transfer to membrane as described above. Primary antibodies used in this study were anti-PARP1 monoclonal mouse antibody (Trevigen), anti-p62 polyclonal rabbit antibody (Santa Cruz Biotechnology), anti-LC3 polyclonal rabbit antibody (Novus Biologicals), anti-β-actin monoclonal mouse antibody (Sigma), and anti-PCNA monoclonal antibody (PC10; Santa Cruz Biotechnology), anti-poly(ADP-ribose) mouse monoclonal antibody (Tulip Biolabs). […] Immunoblot signals were detected either by Odyssey Imaging System (LI-COR Biotechnology) or by exposure of X-ray films to the membrane soaked in ECL reagent (GE Healthcare).
Background: A western blot detects proteins with antibodies after separation by electrophoresis.

Setting [7] is: 0.5 μM 5-FU + 5 μM hmUdR, WST-1.
The mark [8] stands for this setting: 5 mM caffeine for the last 24 h.

Where two headings read alike, the source gives them in different places.

As a reminder, the GI50 is the concentration that inhibits growth by half. As for `O=c1[nH]cc(F)c(=O)[nH]1` [5-FU, 5-fluorouracil], the GI50 with HT-29 cells [1] (read-out: GI50 of HT-29 cells for 5-FU, 5-FU alone) is 19 µM; in the data set with HT-29 cells [1] (read-out: GI50 of HT-29 cells for 5-FU, combined with hmUdR), below 0.1 µM. In the data set with HT-29 cells [2], the “number of DNA single-strand breaks” value is recorded as “did not significantly increase”. Besides, the “number of double strand breaks” value in the data set with HT-29 cells [3] is “no significant effect”. Besides, the “incorporation of 5-FU into cellular DNA in the presence of hmUdR” value in the data set on HT-29 cellular DNA is “decreased”. Moreover, the “cells accumulated in S phase” value in the data set with HT-29 cells [4] (unsynchronized HT-29 cells, 0.5 μM 5-FU and/or 5 μM hmUdR, 48 h) amounted to 52%. Moreover, the “effect on HT-29 cell growth of increasing concentration in the absence of fdU” value in the data set with human CRC HT-29 cells is listed as “minimal effect”.
Regarding `CN1C(=O)C(Cc2c[nH]c3ccccc23)NC1=S` (stereo not shown) [Nec-1], the “effect of necroptosis inhibitor on the growth inhibition effect of 5-FU and hmUdR” value in the data set on HT-29 cells [1] (setting [7]) was “did not reduce”.
For the molecule `O=c1[nH]c(=O)n([C@H]2C[C@H](O)[C@@H](CO)O2)cc1CO` [hmUdR, 5-Hydroxymethyl-2′-deoxyuridine], the “number of DNA single-strand breaks” value in the data set with HT-29 cells [2] was “did not significantly increase”. Further, the “number of double strand breaks” value in the data set with HT-29 cells [3] is on record as “increased”. Also, the cell cycle distribution entry with HT-29 cells [4] (unsynchronized HT-29 cells, 5 μM hmUdR alone, 48 h) is “did not change the cell cycle distribution”. In addition, the “number of cell divisions per view field, second 24 h period relative to first 24 h period” value in data set [5] worked out at 1.4±0.2 times.
Regarding `Cn1c(=O)c2c(ncn2C)n(C)c1=O` [caffeine], in the data set on HT-29 cells [4] (setting [8]), the “effect of caffeine on the S phase arrest induced by 5-FU alone” value is reported as “abolished”; the “effect of caffeine on the S phase arrest induced by the combination of 5-FU and hmUdR” value was “resistant”. In addition, the “effect of caffeine on the G2/M arrest of cells incubated with 3AB, 5-FU and hmUdR” value in the data set with HT-29 cells [4] (unsynchronized HT-29 cells) is recorded as “partially released the G2/M arrest”.
Turning to `NC(=O)c1cccc(N)c1` [3AB, 3-aminobenzamide], the “effect of PARP inhibitor on the reduction in succinate-tetrazolium reductase activity by 5-FU and hmUdR” value in the data set with HT-29 cells [1] was “partially corrected”. Further, the “effect of 3AB on the number of strand breaks caused by 5-FU and hmUdR” value with HT-29 cells [2] (3 mM 3AB, 0.5 μM 5-FU, 5 μM hmUdR) is reported as “significantly decreased”. Besides, in the data set on HT-29 cells [4] (3 mM 3AB added simultaneously with 0.5 μM 5-FU and 5 μM hmUdR), the “effect of 3AB on the S phase arrest induced by 5-FU and hmUdR” value is reported as “enabled most cells to progress through S phase to G2/M”. Besides, the “rescue of the effect of 5-FU and hmUdR on cell proliferation (CyQUANT)” value in the data set on HT-29 cells [6] was “did not rescue”.
For `COC(=O)CC(NC(=O)C(NC(=O)c1ccc2ccccc2n1)C(C)C)C(=O)COc1c(F)cccc1F` (stereo not shown) [QVD, Quinolyl-valyl-O-methylaspartyl-[-2,6-difluorophenoxy]-methyl ketone], the “effect of caspase inhibitor on the growth inhibition effect of 5-FU and hmUdR” value in the data set on HT-29 cells [1] (setting [7]) is given as “did not diminish”.
With `O=Cc1cn([C@H]2C[C@H](O)[C@@H](CO)O2)c(=O)[nH]c1=O` [foUdR, 5-formyl-2′-deoxyuridine], in the data set on HT-29 cells [1] (HT-29, 72 hours), the “activity with 5-FU relative to hmUdR” value is reported as “comparable” and the “enhancement of 5-FU activity / synergy with 5-FU” value is listed as “acted synergistically”.
Regarding `O=c1[nH]cc(CO)c(=O)[nH]1` [5-hydroxymethyluracil], in the data set with HT-29 cells [1] (HT-29, 72 hours), the “enhancement of 5-FU activity / synergy with 5-FU” value is “did not significantly enhance”.
Take `C[C@]1(c2nc3c(C(N)=O)cccc3[nH]2)CCCN1` [ABT-888]: the “effect of PARP inhibitor on the reduction in succinate-tetrazolium reductase activity by 5-FU and hmUdR” value in the data set with HT-29 cells [1] is “partially corrected”.
With `O=c1[nH]c(=O)n([C@H]2C[C@H](O)[C@@H](CO)O2)cc1CCO` [heUdR, 5-hydroxyethyl-2′-deoxyuridine], in the data set on HT-29 cells [1] (HT-29, 72 hours), the “enhancement of 5-FU activity / synergy with 5-FU” value was “neither UdR nor heUdR significantly enhanced”.
Consider `O=c1[nH]c(=O)n([C@H]2C[C@H](O)[C@@H](CO)O2)cc1O` [hUdR, 5-hydroxy-2′-deoxyuridine], for which the “enhancement of 5-FU activity / synergy with 5-FU” value in the data set with HT-29 cells [1] (HT-29, 72 hours) is listed as “to a lesser extent, hUdR (FIG. 5E) acted synergistically”.
For the molecule `O=c1ccn([C@H]2C[C@H](O)[C@@H](CO)O2)c(=O)[nH]1` [UdR, 2′-deoxyuridine], the “enhancement of 5-FU activity / synergy with 5-FU” value with HT-29 cells [1] (HT-29, 72 hours) is “neither UdR nor heUdR significantly enhanced”.

B1: TRAIL: used with LY294002 as positive control for PARP1 cleavage; known to cause apoptosis (protein, UniProt P50591 1-281, looked up)
Tumor necrosis factor ligand …: MAMMEVQGGPSLGQTCVLIVIFTVLLQSLCVAVTYVYFTNELKQMQDKYSKSGIACFLKEDDSYWDPNDEESMNSPCWQVKWQLRQLVRKMILRTSEETISTVQEKQQNISPLVRERGPQRVAAHITGTRGRSNTLSSPNSKNEKALGRKINSWESSRSGHSFLSNLHLRNGELVIHEKGFYYIYSQTYFRFQEEIKENTKNDKQMVQYIYKYTSYPDPILLMKSARNSCWSKDAEYGLYSIYQGGIFELKENDRIFVSVTNEHLIDMDHEASFFGAFLVG
Turning to B1, in the data set on PARP1, the “PARP1 cleavage (characteristic of apoptosis)” value is given as “induced”.

(Values after US10086010B2 (STC.UNM, priority 2014, dated 2018).)
